Our source for the relative viability values is the supplement of paper PMC10307832.

Each structure is given as a SMILES string.

For one assay, the system named is NCI-H1666. In words: relative viability (nuclei count vs DMSO), 5 days (fraction); higher = more cells survive. The conditions noted are these: first compound 2.53 µM. The procedure, abridged: (§1)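 Cells from lung cancer lines were seeded into 1536-well plates and, one day later, dosed by pin tool. Treatments were either a single drug or a fixed dose of an anchor drug with five library-drug doses (not always all listed) in √10 steps. After 5 days, nuclei were stained in a one-step fixation (final 0.05% Triton X-100, 1% formaldehyde, 1 ug/ml Hoechst) and counted on 4× images, and relative viability is the treated-to-vehicle nuclei ratio, as the median of duplicate plates.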
Turning to `CCCCCCCCCCCC1=C(O)C(=O)C=C(O)C1=O` [Embelin] + O=C(CCCCCCC(=O)Nc1ccccc1)NO [Vorinostat] (partner 1 µM), the relative viability was found to be 1.09.
Compound `CCCCCCCCCCCC1=C(O)C(=O)C=C(O)C1=O` [Embelin] + O=C(c1cc(Cc2n[nH]c(=O)c3ccccc23)ccc1F)N1CCN(C(=O)C2CC2)CC1 [Olaparib] (partner 8 µM) yielded a relative viability of 0.827.
In the case of `CCCCCCCCCCCC1=C(O)C(=O)C=C(O)C1=O` [Embelin] + Cc1cc(Nc2cc(N3CCN(C)CC3)nc(Sc3ccc(NC(=O)C4CC4)cc3)n2)n[nH]1 [Tozasertib] (partner 0.1 µM), the relative viability was 0.639.
As for `CCCCCCCCCCCC1=C(O)C(=O)C=C(O)C1=O` [Embelin] + Nc1ncn([C@H]2C[C@H](O)[C@@H](CO)O2)c(=O)n1 [Decitabine] (partner 2 µM), the relative viability was found to be 0.78.
On to `CCCCCCCCCCCC1=C(O)C(=O)C=C(O)C1=O` [Embelin] + CC(=O)c1c(C)c2cnc(Nc3ccc(N4CCNCC4)cn3)nc2n(C2CCCC2)c1=O [Palbociclib] (partner 0.5 µM), for which the relative viability amounted to 0.641.

The assay is the same for the next values; noted with them: first compound 8 µM.
Turning to `CCCCCCCCCCCC1=C(O)C(=O)C=C(O)C1=O` [Embelin] + O=C(CCCCCCC(=O)Nc1ccccc1)NO [Vorinostat] (partner 1 µM), the relative viability is 1.05.
On to `CCCCCCCCCCCC1=C(O)C(=O)C=C(O)C1=O` [Embelin] + O=C(c1cc(Cc2n[nH]c(=O)c3ccccc23)ccc1F)N1CCN(C(=O)C2CC2)CC1 [Olaparib] (partner 8 µM), for which the relative viability was 0.713.
The compound `CCCCCCCCCCCC1=C(O)C(=O)C=C(O)C1=O` [Embelin] + Cc1cc(Nc2cc(N3CCN(C)CC3)nc(Sc3ccc(NC(=O)C4CC4)cc3)n2)n[nH]1 [Tozasertib] (partner 0.1 µM) gave a relative viability of 0.615.
Take `CCCCCCCCCCCC1=C(O)C(=O)C=C(O)C1=O` [Embelin] + Nc1ncn([C@H]2C[C@H](O)[C@@H](CO)O2)c(=O)n1 [Decitabine] (partner 2 µM): the relative viability stood at 0.757.
For the compound `CCCCCCCCCCCC1=C(O)C(=O)C=C(O)C1=O` [Embelin] + CC(=O)c1c(C)c2cnc(Nc3ccc(N4CCNCC4)cn3)nc2n(C2CCCC2)c1=O [Palbociclib] (partner 0.5 µM), the relative viability came out at 0.681.

In the next assay the test system is NCI-H1755. The description is as above. Particulars: first compound 0.08 µM. The procedure, abridged: as §1
Regarding `CCCCCCCCCCCC1=C(O)C(=O)C=C(O)C1=O` [Embelin] + O=C(CCCCCCC(=O)Nc1ccccc1)NO [Vorinostat] (partner 1 µM), the relative viability was found to be 0.723.
Compound `CCCCCCCCCCCC1=C(O)C(=O)C=C(O)C1=O` [Embelin] + O=C(c1cc(Cc2n[nH]c(=O)c3ccccc23)ccc1F)N1CCN(C(=O)C2CC2)CC1 [Olaparib] (partner 8 µM) showed a relative viability of 0.986.
Take `CCCCCCCCCCCC1=C(O)C(=O)C=C(O)C1=O` [Embelin] + Cc1cc(Nc2cc(N3CCN(C)CC3)nc(Sc3ccc(NC(=O)C4CC4)cc3)n2)n[nH]1 [Tozasertib] (partner 0.1 µM): the relative viability was 0.666.
The same measure, in the same setting: the value for `CCCCCCCCCCCC1=C(O)C(=O)C=C(O)C1=O` [Embelin] + Nc1ncn([C@H]2C[C@H](O)[C@@H](CO)O2)c(=O)n1 [Decitabine] (partner 2 µM) was 0.767; that for `CCCCCCCCCCCC1=C(O)C(=O)C=C(O)C1=O` [Embelin] + CC(=O)c1c(C)c2cnc(Nc3ccc(N4CCNCC4)cn3)nc2n(C2CCCC2)c1=O [Palbociclib] (partner 0.5 µM) was 0.471.

The same assay, now with this note: first compound 0.8 µM.
With `CCCCCCCCCCCC1=C(O)C(=O)C=C(O)C1=O` [Embelin] + O=C(CCCCCCC(=O)Nc1ccccc1)NO [Vorinostat] (partner 1 µM), the relative viability was found to be 0.813.
Same read-out and setting: as for `CCCCCCCCCCCC1=C(O)C(=O)C=C(O)C1=O` [Embelin] + O=C(c1cc(Cc2n[nH]c(=O)c3ccccc23)ccc1F)N1CCN(C(=O)C2CC2)CC1 [Olaparib] (partner 8 µM), the figure is 0.879; as for `CCCCCCCCCCCC1=C(O)C(=O)C=C(O)C1=O` [Embelin] + Cc1cc(Nc2cc(N3CCN(C)CC3)nc(Sc3ccc(NC(=O)C4CC4)cc3)n2)n[nH]1 [Tozasertib] (partner 0.1 µM), 0.647.
Same read-out and setting: as for `CCCCCCCCCCCC1=C(O)C(=O)C=C(O)C1=O` [Embelin] + Nc1ncn([C@H]2C[C@H](O)[C@@H](CO)O2)c(=O)n1 [Decitabine] (partner 2 µM), the figure is 0.72; as for `CCCCCCCCCCCC1=C(O)C(=O)C=C(O)C1=O` [Embelin] + CC(=O)c1c(C)c2cnc(Nc3ccc(N4CCNCC4)cn3)nc2n(C2CCCC2)c1=O [Palbociclib] (partner 0.5 µM), 0.483.

The same assay, now with this note: first compound 2.53 µM.
On to `CCCCCCCCCCCC1=C(O)C(=O)C=C(O)C1=O` [Embelin] + O=C(CCCCCCC(=O)Nc1ccccc1)NO [Vorinostat] (partner 1 µM), for which the relative viability amounted to 0.809.
`CCCCCCCCCCCC1=C(O)C(=O)C=C(O)C1=O` [Embelin] + O=C(c1cc(Cc2n[nH]c(=O)c3ccccc23)ccc1F)N1CCN(C(=O)C2CC2)CC1 [Olaparib] (partner 8 µM): the relative viability was 0.901.
On to `CCCCCCCCCCCC1=C(O)C(=O)C=C(O)C1=O` [Embelin] + Cc1cc(Nc2cc(N3CCN(C)CC3)nc(Sc3ccc(NC(=O)C4CC4)cc3)n2)n[nH]1 [Tozasertib] (partner 0.1 µM), for which the relative viability stood at 0.605.
Compound `CCCCCCCCCCCC1=C(O)C(=O)C=C(O)C1=O` [Embelin] + Nc1ncn([C@H]2C[C@H](O)[C@@H](CO)O2)c(=O)n1 [Decitabine] (partner 2 µM) showed a relative viability of 0.781.
As for `CCCCCCCCCCCC1=C(O)C(=O)C=C(O)C1=O` [Embelin] + CC(=O)c1c(C)c2cnc(Nc3ccc(N4CCNCC4)cn3)nc2n(C2CCCC2)c1=O [Palbociclib] (partner 0.5 µM), the relative viability is 0.376.

The same assay, now with this note: first compound 8 µM.
`CCCCCCCCCCCC1=C(O)C(=O)C=C(O)C1=O` [Embelin] + O=C(CCCCCCC(=O)Nc1ccccc1)NO [Vorinostat] (partner 1 µM): the relative viability worked out at 0.574.
On to `CCCCCCCCCCCC1=C(O)C(=O)C=C(O)C1=O` [Embelin] + O=C(c1cc(Cc2n[nH]c(=O)c3ccccc23)ccc1F)N1CCN(C(=O)C2CC2)CC1 [Olaparib] (partner 8 µM), for which the relative viability came to 0.849.
Compound `CCCCCCCCCCCC1=C(O)C(=O)C=C(O)C1=O` [Embelin] + Cc1cc(Nc2cc(N3CCN(C)CC3)nc(Sc3ccc(NC(=O)C4CC4)cc3)n2)n[nH]1 [Tozasertib] (partner 0.1 µM) had a relative viability of 0.555.
Consider `CCCCCCCCCCCC1=C(O)C(=O)C=C(O)C1=O` [Embelin] + Nc1ncn([C@H]2C[C@H](O)[C@@H](CO)O2)c(=O)n1 [Decitabine] (partner 2 µM), for which the relative viability was 0.753.
As for `CCCCCCCCCCCC1=C(O)C(=O)C=C(O)C1=O` [Embelin] + CC(=O)c1c(C)c2cnc(Nc3ccc(N4CCNCC4)cn3)nc2n(C2CCCC2)c1=O [Palbociclib] (partner 0.5 µM), the relative viability was 0.427.
